Measurements taken from US20200297711A1, “PHARMACEUTICAL COMPOSITION COMPRISING FGFR SELECTIVE TYROSINE KINASE INHIBITOR” (priority 2017, published 2020).
Marks after values point to notes of the source that are not given here.

Test: Pharmacokinetics in plasma following single dose and repeated doses of Compound A 1.5 succinate
Format: in vivo, human
Details: Compound B
Procedure: In order to evaluate the PK when administered as a single dose, a single dose of Compound A for each treatment group (at the corresponding dosage for that group) was administered on Day 1. Compound A was administered when fasted, immediately after waking up with at least 10 hours fasting. Taking any meal was prohibited for 2 hours after administration and only drinking water was allowed.
Cycle 1 was started between 8 and 10 days after dosing in Cycle 0 and Compound A was administered continuously once daily. Compound A was administered at least 2 hours after breakfast, and any food intake was prohibited for 1 hour after administration. However, on Day 8 of Cycle 1, Compound A was administered immediately after waking up while the subject was fasted after at least 10 hours of overnight fasting in order to evaluate the PK. Taking any meals was prohibited for 2 hours after administration and only drinking water was allowed.
Plasma concentration profile of Compound A following a single dose and repeated doses of Compound A 1.5 succinate are shown in FIG. 1 and FIG. 2, respectively. The profile shown in FIG. 2 is that at steady state.
(§1) The pharmacokinetic parameters of Compound A following the single dose and repeated doses of Compound A 1.5 succinate are shown in the following table. The pharmacokinetic parameters of Compound A following repeated doses of Compound A 1.5 succinate shown below are those at steady state.
as §1, with “1.5 succinate updated after obtaining the above data are shown” for “1.5 succinate are shown”
The pharmacokinetic parameters of Compound B following the single dose and repeated doses of Compound A 1.5 succinate are shown in the following table. The pharmacokinetic parameters of Compound B following repeated doses of Compound A 1.5 succinate shown below are those at steady state.

[1] = repeated once-daily doses of Compound A 30 mg, steady state (n = 2)
[2] = repeated once-daily doses of Compound A 60 mg, steady state (n = 2)
[3] = repeated once-daily doses of Compound A 100 mg, steady state (n = 3)
[4] = repeated once-daily doses of Compound A 140 mg, steady state (n = 3)
[5] = repeated once-daily doses of Compound A 180 mg, steady state (n = 3)
[6] = single dose of Compound A 30 mg (n = 2)
[7] = single dose of Compound A 60 mg (n = 3)
[8] = single dose of Compound A 100 mg (n = 3)
[9] = single dose of Compound A 140 mg (n = 3)
[10] = single dose of Compound A 180 mg (n = 3)

AUC(0-t) [1]: 194 ng·h/mL
Cavg [1]: 7.71 ng/mL
Cmax [1]: 12.4 ng/mL
Cmin [1]: 5.19 ng/mL
tmax, median (minimum − maximum) [1]: 3.49 (1.97-5.00) h
AUC(0-t) [2]: 565 ^a^ h* ng/mL
Cavg [2]: 22.6 ^a ng/mL
Cmax [2]: 44.2 ^a ng/mL
Cmin [2]: 12.3 ^a ng/mL
tmax, median (minimum − maximum) [2]: 2.54 (2.07-3.00) ^a h
AUC(0-t) [3]: 805 ± 195 ng·h/mL
Cavg [3]: 32.3 ± 7.79 ng/mL
Cmax [3]: 55.4 ± 14.5 ng/mL
Cmin [3]: 17.4 ± 7.37 ng/mL
tmax, median (minimum − maximum) [3]: 5.00 (4.98-5.05) h
AUC(0-t) [4]: 1620 ± 460 ng·h/mL
Cavg [4]: 66.1 ± 18.8 ng/mL
Cmax [4]: 106 ± 51.8 ng/mL
Cmin [4]: 41.5 ± 10.9 ng/mL
tmax, median (minimum − maximum) [4]: 5.00 (2.98-5.08) h
AUC(0-t) [5]: 1500 ± 686 ng·h/mL
Cavg [5]: 60.4 ± 27.7 ng/mL
Cmax [5]: 98.0 ± 39.5 ng/mL
Cmin [5]: 32.8 ± 13.0 ng/mL
tmax, median (minimum − maximum) [5]: 5.00 (3.05-5.08) h
AUC(0-inf) [6]: 0.297 µg·h/mL
AUC(0-t) [6]: 274 ng·h/mL
Cmax [6]: 19.2 ng/mL
t1/2 [6]: 21.5 h
tmax, median (minimum − maximum) [6]: 3.59 (2.02-5.15) h
AUC(0-inf) [7]: 0.687 ± 0.354 µg·h/mL
AUC(0-t) [7]: 652 ± 352 ng·h/mL
Cmax [7]: 35.1 ± 19.1 ng/mL
t1/2 [7]: 26.1 ± 10.2 h
tmax, median (minimum − maximum) [7]: 4.98 (3.00-5.07) h
AUC(0-inf) [8]: 0.699 ± 0.163 µg·h/mL
AUC(0-t) [8]: 647 ± 153 ng·h/mL
Cmax [8]: 38.4 ± 4.36 ng/mL
t1/2 [8]: 20.0 ± 0.794 h
tmax, median (minimum − maximum) [8]: 4.95 (2.97-5.10) h
AUC(0-inf) [9]: 1.41 ± 0.216 µg·h/mL
AUC(0-t) [9]: 1350 ± 233 ng·h/mL
Cmax [9]: 63.8 ± 36.1 ng/mL
t1/2 [9]: 40.50 ± 6.46 h
tmax, median (minimum − maximum) [9]: 5.00 (4.88-5.08) h
AUC(0-inf) [10]: 1.37 ± 0.703 µg·h/mL
AUC(0-t) [10]: 1320 ± 693 ng·h/mL
Cmax [10]: 50.7 ± 20.7 ng/mL
t1/2 [10]: 39.9 ± 6.27 h
tmax, median (minimum − maximum) [10]: 5.00 (3.00-5.02) h
Structure (SMILES): CNC(=O)n1ccc2cc(Oc3ccnc(NC(=O)c4ccc(C5CCNCC5)cc4)c3)c(OCCOC)cc21 [Compound B, 6-(2-Methoxyethoxy)-N-methyl-5-((2-(4-(piperidin-4-yl)benzamide)pyridin-4-yl)oxy)-1H-indole-1-carboxamide]
